{"source": "patent US20180110777A1", "about": "“METHOD FOR REGULATION OF TELOMERE LENGTH” (The Johns Hopkins University, priority 2015, published 2018)", "key": {"[1]": {"tested_on": "SL13 cells", "assay": "Telomere Southern blot after lentiviral overexpression of mTR and mTERT", "assay_type": "cell-based, mouse", "details": "SL13 cells transduced with lentivirus expressing mTR and mTERT; day 6"}, "[2]": {"tested_on": "SL13 cells", "assay": "ADDIT assay (addition of de novo initiated telomeres; modified STELA with PacBio sequencing or Southern blot)", "assay_type": "cell-based, mouse", "description": "To critically access the role of ATM, as well as other potential telomere length regulators, an assay was developed that measures telomere repeat addition in cells over 48 hr. CAST/EiJ mouse fibroblast cell line was engineered to (SL13) contain a conditional mTR allele and a modified chromosome 4 (chr4) with an internal 480 bp telomere ‘seed’ sequence followed by a unique I-Sce1 endonuclease cut site (FIG. 5 and see Experimental Procedures). The internal telomere ‘seed’ sequence can be conditionally exposed by I-Sce1 endonuclease cleavage (FIG. 1A) and then be elongated by telomerase in a manner similar to de novo telomere addition shown to occur in yeast (Diede and Gottschling, 1999, Cell 99, 723-733).\nTo better detect the telomere elongation, the single telomere length analysis (STELA) assay was modified (Baird et al., 2004, Hum Mol Genet 13, 1515-1524), to measure telomere length at the in vivo cut chr4. The linker, ‘telorette’, was ligated to the telomere and PCR amplified the telomere using the ‘teltail’ primer and an internal primer in the hygromycin resistance (HYG) sequence on the engineered chromosome (FIG. 1B). To determine the un-extended cut chromosome length in vitro, a different linker was designed, ‘IScerette’, which anneals to the 4-nt 3′ overhang created by the I-Sce1 endonuclease (FIG. 1B). PCR using the forward primers, F1 or F2, and the teltail generated products of predicted size on a Southern blot (data not shown).\nTo further verify telomere addition had occurred, the PCR products were sequenced with Pacific Biosciences (PacBio®) sequencing. PacBio® produces long sequence reads that allowed us to determine telomere length. While sequencing errors, predominantly point insertions and deletions, occurred as expected, the telomere repeats were easily recognizable. To assure products were full length, the PacBio® reads were filtered to examine only those that had the unique HYG sequence followed by the seed telomere repeat sequence and also had the ‘teltail’ primer sequence (FIG. 6). […] The I-Sce1 site is shown boxed (FIG. 1C). Three regions of variant telomere repeats were noted, evident as darker stripes in the aligned reads, that were present in the original SL13 clone, and served as useful sequence reference points (FIG. 1C). If there were degradation past these variants and then new TTAGGG (SEQ ID NO: 100) repeat synthesis in vivo, these landmarks would be removed.\nThe sequence length distribution in the ADDIT assay represents telomere elongation, incomplete telomere replication and in vivo end resection (as well as PacBio® sequencing errors).\nCell lines were grown in DMEM (Gibco) supplemented with 1% Penicillin/Streptomycin/Glutamine (PSG) and 10% heat inactivated FBS (Invitrogen). SL13 cells were grown in DMEM (Gibco) supplemented with 1% PSG and 10% Tet system approved FBS (Clontech, #631107). Cells were treated with ATM inhibitor KU55933 (R&D Systems, #3544), ATR inhibitor VE821 (Selleckchem, #S8007) or PARP1 inhibitor Olaparib (Selleckchem, #1060) at indicated concentrations or DMSO as a control. For the ADDIT assay, SL13 cells were treated with final concentration 2 μg/ml of doxycycline for typically 48 hr or as indicated.\nThe original STELA protocol used for human cells (Baird et al., 2004, Hum Mol Genet 13, 1515-1524) was modified to measure telomere lengths on the cut end of chr4 in SL13 cells. Briefly, genomic DNA was extracted using Puregene Core Kit A™ (Qiagen). 4 μg of genomic DNA was digested with Sph1 (NEB) and later diluted to 10 ng/μl in water. For the in vitro IScerette sample, genomic DNA was digested with SphI and I-SceI (NEB) prior to ligation. The ligation was carried out at 35° C. for at least 12 hr in a volume of 10 μl containing 10 ng of digested genomic DNA, 0.9 μM of telorette linkers or IScerette linker and 0.5 U of T4 DNA ligase (NEB) in 1×T4 ligation buffer. […]"}}, "data": [{"smiles": "CS(=O)(=O)c1ccc(-c2cnc(N)c(C(=O)Nc3ccccc3)n2)cc1", "note": "[VE821]", "values": [{"measurement": "telomere elongation on overexpression of telomerase (Southern blot)", "setting": "[1]", "result": "subtle but reproducible decreased elongation at day 6"}]}, {"smiles": "CN[C@H]1CCc2cc(OC)c(OC)c(OC)c2-c2ccc(OC)c(=O)cc21", "note": "[colcemid]", "values": [{"measurement": "de novo telomere addition / telomere elongation in ADDIT assay (in words)", "setting": "[2]; PacBio sequencing of STELA products, compared to controls", "result": "No significant difference of de novo elongation"}]}, {"smiles": "CN1CC[C@H](c2c(O)cc(O)c3c(=O)cc(-c4ccccc4Cl)oc23)[C@H](O)C1", "note": "[flavopiridol]", "values": [{"measurement": "percentage of reads with de novo telomere addition", "setting": "[2]; 400 nM flavopiridol, 48 hrs, DMSO control 24%", "result": "less than 2%"}, {"measurement": "elongation in Southern blot analysis of STELA PCR products", "setting": "[2]; flavopiridol-treated sample", "result": "minimal elongation beyond the chr4 I-Sce1-induced cut base line"}]}]}
